# Measurements from ChEMBL document CHEMBL5465560, “Selectivity Literature for EUbOPEN Chemogenomic Library” (2024).
# Tests used:
# [1] = molecular target: Cyclin-dependent kinase 15 (Homo sapiens) (UniProt Q96Q40); experiment: Selectivity interaction (KinomeScan (DiscoverX)) EUB0000666a CDK15; conditions: at 10 µM
# [2] = molecular target: Ephrin type-A receptor 2 (Homo sapiens) (UniProt P29317); experiment: Selectivity interaction (SelectScreen profiling (Invitrogen)) EUB0000607a EPHA2; conditions: at 2 µM
# Chain of Ephrin type-A receptor 2 (Homo sapiens) (P29317 whole entry): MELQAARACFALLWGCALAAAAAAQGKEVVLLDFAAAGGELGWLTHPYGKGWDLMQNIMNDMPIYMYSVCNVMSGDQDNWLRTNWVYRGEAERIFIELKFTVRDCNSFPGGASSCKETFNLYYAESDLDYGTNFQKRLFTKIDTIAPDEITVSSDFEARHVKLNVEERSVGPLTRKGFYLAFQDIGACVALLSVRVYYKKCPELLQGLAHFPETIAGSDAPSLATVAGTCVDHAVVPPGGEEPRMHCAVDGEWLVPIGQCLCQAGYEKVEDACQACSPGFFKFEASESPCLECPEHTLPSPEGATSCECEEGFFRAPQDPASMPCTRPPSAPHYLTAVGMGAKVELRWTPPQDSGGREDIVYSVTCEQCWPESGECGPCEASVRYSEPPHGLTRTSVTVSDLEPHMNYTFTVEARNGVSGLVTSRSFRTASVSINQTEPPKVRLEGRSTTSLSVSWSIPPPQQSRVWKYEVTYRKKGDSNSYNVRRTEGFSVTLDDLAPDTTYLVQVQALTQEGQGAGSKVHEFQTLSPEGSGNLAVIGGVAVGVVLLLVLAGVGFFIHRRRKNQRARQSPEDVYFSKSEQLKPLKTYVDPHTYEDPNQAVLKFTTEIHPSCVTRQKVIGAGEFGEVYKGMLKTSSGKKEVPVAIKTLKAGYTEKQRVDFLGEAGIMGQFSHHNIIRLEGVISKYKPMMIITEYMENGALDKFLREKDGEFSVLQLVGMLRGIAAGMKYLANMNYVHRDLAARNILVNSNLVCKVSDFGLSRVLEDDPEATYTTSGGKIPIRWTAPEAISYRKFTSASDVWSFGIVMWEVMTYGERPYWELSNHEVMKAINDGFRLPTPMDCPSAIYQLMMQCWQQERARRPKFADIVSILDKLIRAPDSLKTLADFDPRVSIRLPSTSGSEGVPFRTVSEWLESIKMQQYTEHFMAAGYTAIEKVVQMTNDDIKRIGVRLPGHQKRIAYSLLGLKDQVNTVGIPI
# [3] = molecular target: Ribosomal protein S6 kinase alpha-1 (Homo sapiens, UniProt Q15418); experiment: Selectivity interaction (ActivX KiNativ screen (kinase selectivity in THP-1 cell lysates)) EUB0000639a RPS6KA1; assay type: subcellular; conditions: lysate, at 1 µM
# Chain of Ribosomal protein S6 kinase alpha-1 (Q15418 whole entry, canonical isoform): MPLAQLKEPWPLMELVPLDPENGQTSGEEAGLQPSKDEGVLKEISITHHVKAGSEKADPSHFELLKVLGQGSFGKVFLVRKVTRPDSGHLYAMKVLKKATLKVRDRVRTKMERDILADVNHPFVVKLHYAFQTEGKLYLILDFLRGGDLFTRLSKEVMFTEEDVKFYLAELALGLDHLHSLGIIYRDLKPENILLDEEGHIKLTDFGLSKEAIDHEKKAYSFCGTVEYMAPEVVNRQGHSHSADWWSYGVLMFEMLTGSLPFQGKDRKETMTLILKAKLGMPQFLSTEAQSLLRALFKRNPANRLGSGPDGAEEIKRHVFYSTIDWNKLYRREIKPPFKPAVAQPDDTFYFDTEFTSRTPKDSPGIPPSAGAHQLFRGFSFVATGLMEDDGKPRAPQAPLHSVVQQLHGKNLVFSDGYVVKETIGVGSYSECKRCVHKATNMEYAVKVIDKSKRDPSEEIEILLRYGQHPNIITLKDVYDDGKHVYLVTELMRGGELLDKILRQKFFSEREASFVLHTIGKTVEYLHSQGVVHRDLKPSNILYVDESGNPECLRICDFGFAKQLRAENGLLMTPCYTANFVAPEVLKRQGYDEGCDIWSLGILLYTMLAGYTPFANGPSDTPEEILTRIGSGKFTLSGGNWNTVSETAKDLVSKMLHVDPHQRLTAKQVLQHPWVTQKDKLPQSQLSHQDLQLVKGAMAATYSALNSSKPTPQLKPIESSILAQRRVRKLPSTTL
# [4] = molecular target: T1, Phosphatidylinositol 4,5-bisphosphate 3-kinase catalytic subunit delta isoform (Homo sapiens) (UniProt O00329); experiment: Selectivity interaction (Kinase panel (Invitrogen)) EUB0000639a PIK3CD; conditions: at 200 nM
# T1 sequence (whole entry): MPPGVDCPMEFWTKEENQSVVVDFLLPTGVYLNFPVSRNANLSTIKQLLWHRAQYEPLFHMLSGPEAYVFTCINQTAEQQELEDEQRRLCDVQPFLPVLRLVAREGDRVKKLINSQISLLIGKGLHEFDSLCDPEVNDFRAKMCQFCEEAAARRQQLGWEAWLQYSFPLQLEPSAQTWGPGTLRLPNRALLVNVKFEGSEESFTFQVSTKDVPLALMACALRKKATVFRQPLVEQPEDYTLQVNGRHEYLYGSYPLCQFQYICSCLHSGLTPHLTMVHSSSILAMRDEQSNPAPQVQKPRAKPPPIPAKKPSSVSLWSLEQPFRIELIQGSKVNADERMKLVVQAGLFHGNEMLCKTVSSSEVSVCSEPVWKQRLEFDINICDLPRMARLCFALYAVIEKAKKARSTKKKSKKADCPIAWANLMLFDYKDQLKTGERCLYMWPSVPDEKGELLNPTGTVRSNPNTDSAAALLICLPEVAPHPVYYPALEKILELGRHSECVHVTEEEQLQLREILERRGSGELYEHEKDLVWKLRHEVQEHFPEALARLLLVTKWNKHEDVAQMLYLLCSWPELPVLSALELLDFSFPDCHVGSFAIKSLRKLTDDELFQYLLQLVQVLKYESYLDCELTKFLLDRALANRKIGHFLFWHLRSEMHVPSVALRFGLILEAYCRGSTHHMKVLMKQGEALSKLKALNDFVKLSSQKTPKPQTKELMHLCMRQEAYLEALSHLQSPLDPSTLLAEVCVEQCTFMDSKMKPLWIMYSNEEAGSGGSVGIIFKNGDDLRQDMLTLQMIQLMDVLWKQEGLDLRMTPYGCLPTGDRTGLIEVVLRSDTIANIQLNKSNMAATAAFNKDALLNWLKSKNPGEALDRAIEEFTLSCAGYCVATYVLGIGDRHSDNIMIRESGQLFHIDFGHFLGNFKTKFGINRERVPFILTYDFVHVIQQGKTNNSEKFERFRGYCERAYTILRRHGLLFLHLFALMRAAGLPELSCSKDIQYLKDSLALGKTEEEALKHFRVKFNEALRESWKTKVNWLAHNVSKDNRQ
# [5] = molecular target: Serine/threonine-protein kinase/endoribonuclease IRE1 (Homo sapiens) (UniProt O75460); experiment: Selectivity interaction (KinomeScan (DiscoverX)) EUB0000695a ERN1; conditions: at 100 nM
# [6] = molecular target: T2, SNF-related serine/threonine-protein kinase (Homo sapiens) (UniProt Q9NRH2); experiment: Selectivity interaction (KinomeScan (DiscoverX)) EUB0000595a SNRK; conditions: at 10 µM
# T2 sequence (whole entry): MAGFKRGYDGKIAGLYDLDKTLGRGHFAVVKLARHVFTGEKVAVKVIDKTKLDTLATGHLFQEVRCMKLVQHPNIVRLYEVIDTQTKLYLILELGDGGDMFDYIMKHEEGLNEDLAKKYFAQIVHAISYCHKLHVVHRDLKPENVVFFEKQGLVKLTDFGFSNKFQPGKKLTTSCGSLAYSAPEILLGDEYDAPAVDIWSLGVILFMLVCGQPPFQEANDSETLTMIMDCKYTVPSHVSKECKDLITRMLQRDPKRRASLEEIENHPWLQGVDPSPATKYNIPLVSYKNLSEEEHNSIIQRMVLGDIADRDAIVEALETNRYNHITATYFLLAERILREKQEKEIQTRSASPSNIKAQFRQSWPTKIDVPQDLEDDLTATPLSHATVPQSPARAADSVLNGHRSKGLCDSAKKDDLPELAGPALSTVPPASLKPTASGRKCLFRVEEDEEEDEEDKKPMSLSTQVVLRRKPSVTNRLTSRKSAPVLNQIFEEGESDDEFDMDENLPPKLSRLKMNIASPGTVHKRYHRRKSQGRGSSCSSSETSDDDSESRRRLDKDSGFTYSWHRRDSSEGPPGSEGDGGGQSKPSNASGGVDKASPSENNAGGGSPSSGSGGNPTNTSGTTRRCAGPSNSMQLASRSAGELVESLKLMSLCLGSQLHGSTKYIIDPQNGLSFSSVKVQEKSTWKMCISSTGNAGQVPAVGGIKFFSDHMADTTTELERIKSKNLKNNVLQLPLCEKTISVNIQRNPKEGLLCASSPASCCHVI
# [7] = molecular target: T3, Dual specificity mitogen-activated protein kinase kinase 6 (Homo sapiens) (UniProt P52564); experiment: Selectivity interaction (KinomeScan (DiscoverX)) EUB0001049a MAP2K6; conditions: at 1 µM
# T3 sequence (whole entry): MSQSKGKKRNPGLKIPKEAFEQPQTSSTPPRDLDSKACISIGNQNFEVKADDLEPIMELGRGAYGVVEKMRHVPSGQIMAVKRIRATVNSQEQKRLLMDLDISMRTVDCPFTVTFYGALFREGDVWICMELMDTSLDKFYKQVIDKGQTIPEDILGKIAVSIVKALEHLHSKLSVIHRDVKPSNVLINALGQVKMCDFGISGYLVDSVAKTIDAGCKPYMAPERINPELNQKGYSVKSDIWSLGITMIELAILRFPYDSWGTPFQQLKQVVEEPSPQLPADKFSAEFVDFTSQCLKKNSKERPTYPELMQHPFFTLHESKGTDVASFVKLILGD
# [8] = test system: Mast/stem cell growth factor receptor Kit (Homo sapiens), P10721 [L576P]; experiment: (§1) Selectivity interaction (KinomeScan (DiscoverX)) EUB0001079a KIT; conditions: at 1 µM
# [9] = test system: Mast/stem cell growth factor receptor Kit (Homo sapiens), P10721 [A829P]; experiment: as §1; conditions: at 1 µM
# [10] = test system: Mast/stem cell growth factor receptor Kit (Homo sapiens), P10721 [D816H]; experiment: as §1; conditions: at 1 µM
# Chain of Mast/stem cell growth factor receptor Kit (Homo sapiens), P10721 [D816H] (P10721 whole entry D816H): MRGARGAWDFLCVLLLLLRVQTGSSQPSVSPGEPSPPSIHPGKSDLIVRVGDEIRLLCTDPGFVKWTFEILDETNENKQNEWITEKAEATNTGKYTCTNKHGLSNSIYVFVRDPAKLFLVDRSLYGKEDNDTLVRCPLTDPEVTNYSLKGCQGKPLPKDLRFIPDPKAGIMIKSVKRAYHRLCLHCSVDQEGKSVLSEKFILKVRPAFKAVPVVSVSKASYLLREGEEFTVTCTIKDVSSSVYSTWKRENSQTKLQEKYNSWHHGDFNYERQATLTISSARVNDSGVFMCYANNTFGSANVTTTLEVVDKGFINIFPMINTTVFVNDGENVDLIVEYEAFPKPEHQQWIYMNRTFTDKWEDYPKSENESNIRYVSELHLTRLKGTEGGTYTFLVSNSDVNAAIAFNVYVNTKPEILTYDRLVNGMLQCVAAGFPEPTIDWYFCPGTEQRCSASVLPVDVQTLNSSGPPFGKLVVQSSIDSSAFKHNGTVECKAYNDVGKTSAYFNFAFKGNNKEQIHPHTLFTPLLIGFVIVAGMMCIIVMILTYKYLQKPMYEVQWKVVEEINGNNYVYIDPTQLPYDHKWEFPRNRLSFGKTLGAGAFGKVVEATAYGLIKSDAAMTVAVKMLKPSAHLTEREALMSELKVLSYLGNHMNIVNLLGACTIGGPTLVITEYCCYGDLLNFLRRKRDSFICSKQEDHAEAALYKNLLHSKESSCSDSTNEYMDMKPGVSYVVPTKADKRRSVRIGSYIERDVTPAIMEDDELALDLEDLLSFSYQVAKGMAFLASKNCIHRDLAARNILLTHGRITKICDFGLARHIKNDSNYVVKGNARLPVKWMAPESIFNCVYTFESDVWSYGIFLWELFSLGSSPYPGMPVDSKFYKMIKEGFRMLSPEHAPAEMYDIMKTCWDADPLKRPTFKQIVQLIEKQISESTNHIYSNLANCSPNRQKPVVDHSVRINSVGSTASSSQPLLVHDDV
# [11] = test system: Mast/stem cell growth factor receptor Kit (Homo sapiens), P10721 [D816V]; experiment: as §1; conditions: at 1 µM
# Chain of Mast/stem cell growth factor receptor Kit (Homo sapiens), P10721 [D816V] (P10721 whole entry D816V): as the sequence (P10721 whole entry D816H) above, with H816V counted along it
# [12] = test system: Mast/stem cell growth factor receptor Kit (Homo sapiens), P10721 [V559D,V654A]; experiment: as §1; conditions: at 1 µM
# Chain of Mast/stem cell growth factor receptor Kit (Homo sapiens), P10721 [V559D,V654A] (P10721 whole entry V559D/V654A): as the sequence (P10721 whole entry D816H) above, with V559D, V654A, H816D counted along it
# [13] = test system: Mast/stem cell growth factor receptor Kit (Homo sapiens), P10721 [V559D]; experiment: as §1; conditions: at 1 µM
# [14] = test system: Mast/stem cell growth factor receptor Kit (Homo sapiens), P10721 [V559D,T670I]; experiment: as §1; conditions: at 1 µM
# [15] = molecular target: Mast/stem cell growth factor receptor Kit (Homo sapiens, UniProt P10721); experiment: as §1; conditions: at 1 µM
# Chain of Cyclin-dependent kinase 15 (Homo sapiens) (Q96Q40 whole entry): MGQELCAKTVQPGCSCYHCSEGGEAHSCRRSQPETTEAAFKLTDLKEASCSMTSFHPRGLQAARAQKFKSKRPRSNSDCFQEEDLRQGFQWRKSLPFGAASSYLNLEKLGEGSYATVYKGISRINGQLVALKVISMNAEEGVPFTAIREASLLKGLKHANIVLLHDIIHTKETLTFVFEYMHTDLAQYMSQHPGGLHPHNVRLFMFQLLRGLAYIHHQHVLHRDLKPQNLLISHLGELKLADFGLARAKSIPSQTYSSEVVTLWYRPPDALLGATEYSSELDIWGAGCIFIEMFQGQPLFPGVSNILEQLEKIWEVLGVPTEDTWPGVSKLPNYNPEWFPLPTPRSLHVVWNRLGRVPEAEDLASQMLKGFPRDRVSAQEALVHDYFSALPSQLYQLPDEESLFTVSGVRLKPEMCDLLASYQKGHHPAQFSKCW
smiles,measurement,setting,value
O=C(NOC[C@H](O)CO)c1ccc(F)c(F)c1Nc1ccc(I)cc1F,% of control,[1],78%
CNC(=O)Nc1ccc(-c2nc(N3CC4CCC(C3)O4)c3cnn(C4CCC5(CC4)OCCO5)c3n2)cc1,% of inhibition,[2],8%
CC[C@@H]1[C@H](F)C(=O)N[C@@H]1COc1nccc2cc(C(N)=O)c(OC)cc12 [ZIMLOVISERTIB],% of inhibition,[3],5.7%
same,% of inhibition,[4],1.5%
Cc1cc(F)c(C(=O)Nc2cccc(-c3nncn3C(C)C)n2)cc1-n1cnc(C2CC2)c1,% of control,[5],88%
COCC(=O)NC/C=C/c1ccc2ncnc(Nc3ccc(Oc4ccc(C)nc4)c(C)c3)c2c1 [CP-724714],% of control,[6],71%
COc1cc(Nc2nc(C)cc(-c3cnn4nc(OC)ccc34)n2)cc(C(F)(F)F)c1,% of control,[7],100%
Nc1cnc(N2CCc3cc(S(=O)(=O)Nc4c(F)cc(Cl)cc4F)cc(N4CCCC4=O)c32)nc1 [TP-020n],% of control,[8],83%
same,% of control,[9],100%
same,% of control,[10],100%
same,% of control,[11],100%
same,% of control,[12],100%
same,% of control,[13],100%
same,% of control,[14],100%
same,% of control,[15],100%
